In ChEMBL document CHEMBL1201862, “PubChem BioAssay data set” (2004):
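Where inhibition never reached the appropriate level, the endpoint shown equals the highest concentration tested. Otherwise, values were interpolated linearly from a five-concentration, 48-hour dose response in 96-well plates. GI50 is the concentration that inhibits growth by half.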 The source made the active and inactive calls. Rule as the data show it: active = GI50 up to about 1.1 µM and inactive = higher.

Legend:
Test in all cases: growth of human tumour cells (NCI), 48 h
[1] = test system: CCRF-CEM
[2] = test system: SF-539
[3] = test system: SN12C
[4] = test system: KM-20L2
[5] = test system: U-251
[6] = test system: SNB-19
[7] = test system: OVCAR-4
[8] = test system: HCT-116
[9] = test system: SW-620
[10] = test system: LOX IMVI
[11] = test system: MCF7
[12] = test system: M19-MEL
[13] = test system: HCC 2998
[14] = test system: DMS-273
[15] = test system: RXF 393
[16] = test system: HCT-15
[17] = test system: NCI/ADR-RES
[18] = test system: OVCAR-3
[19] = test system: CAKI-1
[20] = test system: ACHN

| SMILES | GI50 [1] | GI50 [2] | GI50 [3] | GI50 [4] | GI50 [5] | GI50 [6] | GI50 [7] | GI50 [8] | GI50 [9] | GI50 [10] | GI50 [11] | GI50 [12] | GI50 [13] | GI50 [14] | GI50 [15] | GI50 [16] | GI50 [17] | GI50 [18] | GI50 [19] | GI50 [20] |
| --- | --- | --- | --- | --- | --- | --- | --- | --- | --- | --- | --- | --- | --- | --- | --- | --- | --- | --- | --- | --- |
| CSc1nc2c(ncn2C2OCC(O)C(O)C2O)c(=O)[nH]1 (stereo not given) | > 100 µM (inactive) | > 100 µM (inactive) | > 100 µM (inactive) | > 100 µM (inactive) | > 100 µM (inactive) | > 100 µM (inactive) | > 100 µM (inactive) | > 100 µM (inactive) | > 100 µM (inactive) | > 100 µM (inactive) | > 100 µM (inactive) | > 100 µM (inactive) | > 100 µM (inactive) | > 100 µM (inactive) | > 100 µM (inactive) | > 100 µM | > 100 µM (inactive) | > 100 µM (inactive) |  |  |
| O=C(CCl)NNC1=Nc2ccc(Cl)cc2SC1 | 0.612 µM (active) | 2.02 µM (inactive) | 1.95 µM (inactive) | 4.3 µM (inactive) | 2.15 µM (inactive) | 13.5 µM (inactive) | 2.12 µM (inactive) | 1.64 µM (inactive) | 2.04 µM (inactive) | 1.14 µM (inactive) | 3.01 µM (inactive) | 2.18 µM (inactive) | 5.4 µM (inactive) | 2.88 µM (inactive) | 1.9 µM (inactive) | 1.81 µM | 1.8 µM (inactive) | 1.78 µM (inactive) |  |  |
| Cc1ccc2[nH]c3c(C)c4ccncc4c(C)c3c2c1 | 0.242 µM (active) | 1.33 µM (inactive) | 0.449 µM (active) | 0.815 µM (active) | 1.16 µM (inactive) | 1.24 µM (inactive) | 1.08 µM (active) | 0.322 µM (active) | 0.384 µM (active) | 0.871 µM (active) | 0.908 µM (active) | 1.36 µM (inactive) | 1.48 µM (inactive) | 0.155 µM (active) | 0.226 µM (active) | 0.63 µM | 0.513 µM (active) | 1.12 µM (active) | 0.906 µM (active) | 1.09 µM (active) |
| CCCCCn1cc2c3c(cccc31)C1C=C(C)CN(C)[C@@H]1C2.Cc1ccc(C(=O)OC(C(=O)O)C(OC(=O)c2ccc(C)cc2)C(=O)O)cc1 (stereo not given) | 4.25 µM (inactive) | 9.95 µM (inactive) | 13 µM (inactive) | 3.83 µM (inactive) | 7.13 µM (inactive) | 10.4 µM (inactive) | 5.96 µM (inactive) | 4.04 µM (inactive) | 4.16 µM (inactive) | 6.47 µM (inactive) | 4.03 µM (inactive) | 4.48 µM (inactive) | 2.6 µM (inactive) | 3.92 µM (inactive) | 5.78 µM (inactive) | 4.58 µM | 6.17 µM (inactive) | 6.75 µM (inactive) | 5.69 µM (inactive) |  |
| C/C=C1/C(=O)O[C@]23C=C[C@@H]4C(C(=O)OC)=CO[C@H](O[C@@H]12)[C@@H]43 [PLUMERICIN] | 0.341 µM (active) | 2.34 µM (inactive) | 1.98 µM (inactive) | 2.17 µM (inactive) | 2.7 µM (inactive) | 3.56 µM (inactive) | 1.52 µM (inactive) | 0.451 µM (active) | 0.432 µM (active) | 0.336 µM (active) | 0.832 µM (active) | 0.726 µM (active) | 2.68 µM (inactive) | 2.32 µM (inactive) | 0.55 µM (active) | 0.671 µM | 0.676 µM (active) | 0.861 µM (active) | 1.14 µM (inactive) |  |
| N#C/C(=C\c1ccncc1)c1csc2ccccc12 | 20.4 µM (inactive) | 21.4 µM (inactive) | 23.6 µM (inactive) | 20 µM (inactive) | 23.5 µM (inactive) | 26 µM (inactive) | 26.2 µM (inactive) | 16.6 µM (inactive) | 26.5 µM (inactive) | 20.4 µM (inactive) | 25 µM (inactive) | 31.8 µM (inactive) | 17.4 µM (inactive) | 26.3 µM (inactive) | 27.7 µM (inactive) | 24 µM | 22.1 µM (inactive) | 21.3 µM (inactive) | 27.4 µM (inactive) |  |
| CN/N=C(\C(=O)Nc1ccc(C)c(C)c1)C(C(=O)OC)c1nc2ccc([N+](=O)[O-])cc2nc1O (stereo not given) | > 100 µM (inactive) | > 100 µM (inactive) | > 100 µM (inactive) | > 100 µM (inactive) | > 100 µM (inactive) | > 100 µM (inactive) | > 100 µM (inactive) | > 100 µM (inactive) | > 100 µM (inactive) | > 100 µM (inactive) |  | > 100 µM (inactive) | > 100 µM (inactive) | > 100 µM (inactive) | > 100 µM (inactive) | 85.1 µM |  |  | > 100 µM (inactive) | > 100 µM (inactive) |
